In patent publication US10376481B2, “Compounds and methods for inhibiting NHE-mediated antiport in the treatment of disorders associated with fluid retention or salt overload and gastrointestinal tract disorders” (ARDELYX, INC, priority 2012, dated 2019):

Legend:
Plasma PK = type: in vivo, Sprague-Dawley rats; settings: Sprague-Dawley, rat plasma, oral gavage, nominal dose 15 mg/kg, mean of n=3
Description: Sprague-Dawley rats (n=3) were dosed with test compound by oral gavage. Blood samples were collected at 0.5, 1, 2 and 4 h by retro-orbital bleeds and processed to plasma using K2EDTA as an anticoagulant. Plasma samples were treated with acetonitrile containing an internal standard and precipitated proteins were removed by centrifugation. Supernatants were analyzed by LC-MS/MS and compound concentrations were determined by interpolation from a standard calibration curve prepared in plasma. Accurate recovery of quality control samples was confirmed to accept each analytical run. Table 5 illustrates data from the pharmacokinetic profiling of an example compound, for which pharmacokinetic parameters were determined.

[1] = system: apical acid secretion, human ileum monolayer culture; assay: Sustained inhibition of apical acid secretion in human organoid monolayer cell cultures (ileum); type: cell-based; settings: 1 μM apical dosing day 6, apical media pH day 8, inhibition of apical acid secretion vs DMSO
Description: (§1) Basal media (BM) consisted of advanced DMEM/F12 containing 10 mM HEPES (Invitrogen, 15630-080), 1:100 Glutamax (Invitrogen, 35050-061), and 1:100 penicillin/streptomycin (Invitrogen, 15140-122). […] Growth factors used included 50 ng per mL mouse EGF (Peprotech, 315-09), 100 ng per mL mouse noggin (Peprotech, 250-38), 500 ng per mL human R-spondin 1 (R&D, 4645-RS), 100 ng per mL mouse Wnt-3a (R&D, 1324-WN), 20 μM Y-27632 (Tocris, 1254), 10 mM nicotinamide (Sigma, N0636), 500 nM A83-01 (Tocris, 2939), 10 μM SB202190 (Tocris, 1264). Transwells were 0.4 μm pore polyester membrane 24-well Transwell inserts (Corning). Cultures were incubated at 37° C. in 5% CO2.
Human ileum organoids were cultured in WENRNAS (Wnt, EGF, noggin, R-spondin1, Nicotinamide, A83-01, SB202190) and typically grown for 7-12 days before being used to plate monolayer cultures. On day 0, organoid cultures embedded in Matrigel were treated with TrypLE Express to break organoids into small pieces and/or single cells. […]
Each human ileum monolayer culture well was washed twice with fresh SBM on the apical side on day 6 before compound dosing. […] On day 8, apical media pH was measured by pH meter, to determine the ability of example compounds to produce sustained inhibition of NHE3 activity in a human monolayer culture system by preventing proton secretion into the apical compartment.

[2] = system: apical acid secretion, human duodenum monolayer culture; assay: Sustained inhibition of apical acid secretion in human organoid monolayer cell cultures (duodenum); type: cell-based; settings: 1 μM apical dosing, inhibition of apical acid secretion vs DMSO
[3] = system: tight junction permeability, human duodenum monolayer culture; assay: Increased trans-epithelial resistance (TEER) in human organoid monolayer cell cultures; type: cell-based; settings: 1 μM apical, baseline corrected
Description: as §1
Human duodenum organoids were cultured in WENRNAS (Wnt, EGF, noggin, R-spondin1, Nicotinamide, A83-01, SB202190) and typically grown for 7-12 days before being used to plate monolayer cultures. […]
Each human duodenum monolayer culture well was washed twice with fresh SBM on the apical side on day 6 or day 7 before dosing. […] Transepithelial electrical resistance (TEER) was used as a quantitative technique to measure of tight junction permeability. TEER values were recorded (MERS00002, Millipore) before dosing and 30 mins and 1 hr after dosing for all wells. […] Baseline corrected TEER for each example compound was compared to the average of the DMSO wells and expressed as a percent TEER of vehicle control.

Cmax (Plasma PK; LLOQ 0.2 ng/mL): 1 ng/mL | AUC (Plasma PK; samples 0.5-4 h): < 3 ng·h/mL
Compound: CN(C)[C@H]1Cc2c(Cl)cc(Cl)cc2[C@@H]1Oc1ccc(S(=O)(=O)NCCOCCOCCNC(=O)NCCCCNC(=O)NCCOCCOCCNS(=O)(=O)c2ccc(O[C@H]3c4cc(Cl)cc(Cl)c4C[C@@H]3N(C)C)cc2)cc1 [Example 1, (S,S)—N,N′-(10,17-dioxo-3,6,21,24-tetraoxa-9,11,16,18-tetraazahexacosane-1,26-diyl)bis(4-((1S,2S)-4,6-dichloro-2-(dimethylamino)-2,3-dihydro-1H-inden-1-yloxy)benzenesulfonamide)]
% inhibition (ileum) [1]: B (50-70%) | % inhibition (duodenum) [2]: C (>70%) | TEER at 30 minutes (% of Vehicle) ([3]; 30 mins after dosing): B (100-130%) | TEER at 60 minutes (% of Vehicle) ([3]; 1 hr after dosing): B (100-130%)
